Results reported in ChEMBL document CHEMBL3507680, “University of Dundee, Gates Library screen for HepG2 cell viability”.

assay: Human HepG2 cell viability assay in 384 well format; type: toxicity, cell-based; set-up: dose 125 nL, time 70.5 hour; cytotoxicity at 70.5 h: concentration not given beside the values; conditions: HepG2 cells, read-out: Inhibition

Compound	cytotoxicity at 70.5 h [%]
COc1cc(C#N)ccc1OCC(=O)NS(=O)(=O)c1cccnc1	-7.29
O=C(c1c[nH]c(=O)[nH]1)N1CCc2ccccc21	-4.03
CN(CCO)Cc1nnc(C2CCN(C(=O)c3ccccc3)CC2)n1C	0.129
O=C(c1cn(CC(=O)N2CCc3[nH]cnc3C2)c2ccccc12)C1CC1	-5.73
CC(C)(CNC(=O)c1ccco1)NC(=O)OC(C)(C)C	-12.7
Cc1nc(N2CCCC2)nc(C)c1NS(=O)(=O)c1ccccc1F	-1.28
COc1ccccc1OCc1cc(C(=O)N2CCC(NC(C)=O)C2)n[nH]1 (stereo not given)	2.49
CCN(C)C(=O)CCN(C)Cc1cnc(C)s1	-0.298
COc1c(CNCc2ccc(Cn3ccnc3)cc2)c(C)nn1C	0.712
COCCn1ccc2cc(C(=O)N3CCN(S(C)(=O)=O)CC3)ccc21	-5.85
COCc1nc(N(C)C)ncc1C(=O)Nc1ccn(C)n1	5.17
Cc1ccc([C@]2(O)CC[C@H]3CN(Cc4cc(C)c(O)c(C)c4)C[C@H]32)nc1	30.6
COc1ccccc1C(C)(C)NCc1ccco1	-19.1
COC(=O)NCCCC(=O)NCC1(c2cccc(Cl)c2)CC1	20.6
Cc1ncnc2c1CCN(C(=O)Cc1ccccn1)CC2	-12.9
CC(C)NC(=O)c1nnn(-c2ccccc2)c1C1CC1	-6.4
O=C(c1ccccc1)N1CCN(CC(O)c2ccc(F)cc2)CC1 (stereo not given)	-11
CCOc1ccc(C(=O)CCC(=O)NCCc2nncn2CC)cc1C	22.5
COCCC(=O)N1CCC2(CC1)CN(S(C)(=O)=O)Cc1ccccc1O2	-2.27
Cc1ccc(CN2CCn3c(COc4cccnc4)cnc3C2C)o1 (stereo not given)	-7.88
COCCN1CCC2(CC1)CC(NC(=O)COC)c1ccccc1O2 (stereo not given)	-7.59
O=C(CCc1cc(O)no1)N1CCC(Cc2ccc(F)cc2)CC1	-12
CS(=O)(=O)c1nccn1Cc1ccc(Cl)cc1	-5.04

Compound	cytotoxicity at 70.5 h [%]
N#Cc1ccc(OCC(O)CN2CCN(c3nccs3)CC2)cc1 (stereo not given)	13.7
Cc1nc(N2CCCC2)nc2c1CCN(C(=O)N1CCCC1)CC2	-8.89
CC(C)c1nc(CN2CCCN(c3nccs3)CC2)no1	6.41
CC(C)c1ncncc1C(=O)NCCN1CCCCCC1	-0.207
Cc1cnn(CCNCc2ccc(C#N)cc2)c1	-1.47
COCCNC(=O)Cn1cc(OCc2ccc(F)cc2)c(=O)cc1C	9.56
OC1(CN2CCC(Oc3cccc(C(F)(F)F)c3)CC2)CNCCOC1 (stereo not given)	-15.4
CNC(=O)CN(C(=O)c1ccc(SC)o1)c1cccc(F)c1	-0.365
CCc1ccccc1CN1CCn2nc(CNC(C)=O)cc2C1	59.7
CC(C)c1cc(C(F)(F)F)n2nc(CCC(=O)O)nc2n1	10.3
CC(=O)N1CCCC(Cc2cnc(-n3ccnc3)cn2)C1 (stereo not given)	-5.34
O=C(CC1CCCC1)Nc1ccc(-n2cc(Cl)cn2)nc1	-12.3
COc1cc(CNC(=O)c2cc(Cl)ccc2F)ccn1	-5.8
COc1cccc2ccn(CC(=O)NC(C)C)c12	11.3
O=c1cc2c(nn1CN1CCN(c3ccc(F)cc3)CC1)CCC2	-13.2
CC(C(=O)N1CCN(c2ccc(F)cc2)CC1)n1ccnc1 (stereo not given)	-3.73
NCC1CN(C(=O)c2cccc(-n3cccn3)c2)CCO1 (stereo not given)	5.52
Nc1cc2c(nn1)CCN(C(=O)CCC1CCCCC1)C2	-11.1
Cc1nn(C)cc1Cn1c(=O)ccc2ccccc21	-3.85
CC(C)=CCn1ncc(N2CCCCC2)cc1=O	-3.13
CC(C)=CCNC1CCCN(c2ccc(C)nn2)C1 (stereo not given)	-1.28
CN(C(=O)c1ccco1)C1CCC(NC(=O)OC(C)(C)C)CC1 (stereo not given)	-6.4
Cc1ccc(NC(=O)Cn2ccc3c(=O)n(C)ccc32)cc1F	-5.99

Compound	cytotoxicity at 70.5 h [%]
COCc1nccc(C2CCCN(Cc3ccc(C#N)cc3F)C2)n1 (stereo not given)	-1.86
Cc1cc(NC2CCCN(Cc3ccc(F)cc3)C2)n2nc(C)cc2n1 (stereo not given)	-0.0493
COCc1cc(C[C@@H]2CC[C@H](O)[C@@H](CN(C)C)O2)no1	-0.737
COc1cccc2cc(CNC(=O)N3CCC(N4CCCC4)C3)oc12 (stereo not given)	-4.76
O=C(c1ccccc1)N1CCO[C@@H]2CN(c3cnccn3)C[C@@H]2C1	-12.3
COCCCn1ccc(NC2CCSCC2)n1	-8.74
CCc1nsc(N2CCn3c(nnc3-c3ccccc3)C2)n1	-4.9
O=C(CCc1cscn1)NS(=O)(=O)c1ccc2ccccc2c1	-5.17
CCC1=NOC(CNCc2cnc(-c3ccccc3C)s2)C1 (stereo not given)	-6.62
c1cnc(N2CCOCC3(CCCN(CC4CC4)C3)C2)cn1 (stereo not given)	-5.91
CN(Cc1ccco1)C(=O)NC(Cn1ccnc1)C(C)(C)C (stereo not given)	-5.15
Cc1nccc(N[C@H]2CN(C(=O)CN3CCOCC3)C[C@@H]2C(C)C)n1	-1.67
Cc1cc(C(=O)NC2CCCN(c3ccccc3)C2=O)on1 (stereo not given)	0.654
Cn1ncc2c(=O)[nH]c(CN(Cc3ccco3)C3CCCC3)nc21	-0.279
Cc1cc(-c2cnc(NCc3ccc4c(c3)OCO4)nc2C(C)C)on1	-4.67
NC(=O)c1ccccc1Oc1cccc(C2CCCNC2)n1 (stereo not given)	-4.29
O=C(c1cnccn1)N1CCN(c2ccnc3ccsc23)CC1	-13.2
COc1ccc(C(=O)N2CC(=O)N(CC3CC3)CC(O)C2)cc1 (stereo not given)	-4
CCc1ncc(CN2CCC(O)(c3ccccc3F)CC2)cn1	-4.61
Cc1n[nH]c(C)c1Sc1ccccc1NC(=O)CN1CCCC1	-3.41
CCc1[nH]c2ccc(CNC(=O)c3cnc(N)nc3C)cc2c1C	-3.2
CN1CCOC(CNCc2cccc(OC(F)(F)F)c2)C1 (stereo not given)	-11.5
Cc1cnn(CC2CCCCN2CCS(C)(=O)=O)c1 (stereo not given)	-1.02

Compound	cytotoxicity at 70.5 h [%]
CSC1(CNc2ncc(Br)cn2)CCOCC1	-0.0448
CCc1cc(-c2nccn2-c2ccccc2CN2CCOCC2)on1	16.1
Cc1ccc(CNC(=O)C2CCN(C(=O)c3ccco3)CC2)n1C	20.7
O=C(O)CCCC(=O)NCC1(O)CCN(c2ccnc3cccnc23)C1 (stereo not given)	1.69
CC(C)c1cc(N2CCC(N)CC2)n2nccc2n1	-4
CN(C)c1ncc(CNS(=O)(=O)c2cc(F)ccc2Cl)n1C	-9.08
CNC(=O)NC(=O)CN1CCC(c2cccc(F)c2)C1 (stereo not given)	-4.22
Cc1noc(CCNS(=O)(=O)N2CCCC2c2ccco2)n1 (stereo not given)	-8.16
CC(C)(C)n1ncc2c1CCCC2NCc1ccc2c(c1)CCO2 (stereo not given)	9.44
Cc1nc(CC2CCCN(Cc3nc(N)c4ccccc4n3)C2)no1 (stereo not given)	-7.12
CC(C)C(=O)N1CCCC12CCN(C(=O)c1ccno1)C2 (stereo not given)	-1.72
Cc1cc(C(=O)N2C[C@H](c3ccccc3)[C@@H](N)C2)c2ccc(F)cc2n1	-12.1
Cc1noc(C)c1CN(C)CC(=O)/N=c1\cc[nH]n1C(C)C1CC1 (stereo not given)	22.1
CN1CCC(C(=O)N2CCC(c3ccc4c(N)n[nH]c4n3)CC2)CC1	-0.601
Cc1ccccc1C(=O)N1C[C@@H]2CCN(c3cccnc3)C[C@@H]2C1	-4.88
NC(=O)c1c(-c2ccc(Cl)cc2)csc1NC(=O)CCC(=O)O	-4.48
CCN(Cc1nc(COC)no1)Cc1ccccc1OCC(=O)O	20
Cc1ccc(S(=O)(=O)NC(=O)CCc2ccccc2)cc1N(C)C	-5.27
Cc1nsc(N2CCN(CC(=O)NCc3cccnc3)CC2)n1	-0.83
Cc1ccc(C)n1-c1c(C(=O)NCC(C)N(C)C)cnn1C (stereo not given)	-0.908
O=C(NCCCc1ccccn1)c1cn(CCN2CCNCC2)nn1	-9.59
OCCn1nccc1C1CCN(CCOc2cccc(F)c2)CC1	-1.45
O=C(c1cnc(NCCC2CCCO2)c(Cl)c1)N1CCOCC1 (stereo not given)	-7.98

Compound	cytotoxicity at 70.5 h [%]
CC(=O)c1ccc(S(=O)(=O)NCc2cccnc2N(C)C)cc1	-3.14
O=C(NCCN1CCOCC1)c1ccn(COc2ccc(F)cc2)n1	-5.85
COc1ccc(C(=O)N2CCC3(CC2)c2ccccc2[C@@H](N)[C@@H]3O)cc1	0.101
O=C(O)c1c(Cl)ncn1-c1cccc2ccccc12	-4.51
CC1c2cccn2CCN1C(=O)CCCc1nc(-c2ccco2)no1 (stereo not given)	-7.42
CN1C(=O)CC2(CCN(S(=O)(=O)c3cccs3)CC2)c2ccccc21	8.66
O=C1CC2(CCCCN2C(=O)Cc2ccccc2)CN1c1cccnc1 (stereo not given)	-1.11
Cc1cc(NC2CCN(c3ccc(F)cc3)CC2)n2nc(C)cc2n1	-1.64
Cn1ccc2c(-c3cc(N4CCOCC4)ncn3)ccnc21	-6.11
FC(F)(F)c1cc(C2CCCN(Cc3ccncc3)C2)n[nH]1 (stereo not given)	-1.55
Cc1ccc(CN2C[C@H]3CN(Cc4ccccc4Cl)CCN3C2=O)cc1	-9.42
Cc1nc(O)c2nnn(C[C@H]3CCCN3C(=O)C(C)(C)C)c2n1	-13.1
COc1ccccc1CNC(=O)C[S+]([O-])Cc1cc(C)on1 (stereo not given)	-3.68
CC(=O)NCc1nnn2c1CN(c1ncc(C)cn1)CCC2	-20.5
CC(C)=CCN1C[C@H]2CC[C@@H]1CN(C(=O)CCc1n[nH]c(C)n1)C2	-1.3
COc1cccc([C@@H]2CCN(Cc3[nH]nc(C)c3Cl)C[C@H]2O)c1	-22.1
CCn1ccnc1S(=O)(=O)Cc1ccc(C(N)=O)cc1	-2.48
CN(C)Cc1cncc2c1CCN(Cc1ccoc1)C2	-4.55
COc1cccc([C@@H](C)n2ccnc2-c2cc3n(n2)CCNC3)c1	-10.2
CCS(=O)(=O)c1ccccc1N1CCC(N)CC1	-3.9
Cc1nc(C)c(CC(=O)Nc2nnc(C(C)C)s2)c(=O)[nH]1	-5.16
CC(=O)N[C@H]1CCO[C@@H](c2cccc(NC(=O)Cc3ccccc3)c2)C1	10.3
CC(NC(=O)CN1CCN(Cc2ccc(Br)s2)CC1)c1ccccc1 (stereo not given)	25.3
